Our source for the EC50 values is patent US20260317309A1, “N-HETEROCYLIC GPCR RECEPTOR AGONISTS, PHARMACEUTICAL COMPOSITIONS COMPRISING THE SAME, AND METHODS FOR THEIR USE” (Carmot Therapeutics, Inc., priority 2022, published 2026).

Bounds are passed on as bounds.

This assay deals with T1, human GLP-1 receptor (Homo sapiens, UniProt P43220).
T1 construct: expressed in transfected cells
T1 sequence (P43220 24-463): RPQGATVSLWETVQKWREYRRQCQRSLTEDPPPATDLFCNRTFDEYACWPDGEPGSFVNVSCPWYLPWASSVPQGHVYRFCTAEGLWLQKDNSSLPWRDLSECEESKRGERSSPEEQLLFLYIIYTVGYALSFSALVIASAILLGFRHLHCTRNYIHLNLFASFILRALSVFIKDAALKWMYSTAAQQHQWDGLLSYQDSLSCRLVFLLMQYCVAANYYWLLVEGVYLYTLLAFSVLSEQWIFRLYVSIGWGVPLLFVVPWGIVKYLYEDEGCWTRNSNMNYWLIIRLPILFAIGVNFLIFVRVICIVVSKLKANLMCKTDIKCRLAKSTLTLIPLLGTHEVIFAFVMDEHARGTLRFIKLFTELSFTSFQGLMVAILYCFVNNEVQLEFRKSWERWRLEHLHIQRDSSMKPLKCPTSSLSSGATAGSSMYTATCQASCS
Put plainly: GLP-1R cAMP assay (cAMP accumulation in CHO cells stably overexpressing the human GLP-1 receptor, HitHunter kit). Format: cell-based. The conditions noted are these: CHO cells stably overexpressing human GLP-1R, 30 min, 20-point dose response in triplicate. The method, boiled down:
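CHO cells stably expressing the human receptor (10,000/well) in HBSS with 10 mM HEPES and 625 μM IBMX, given compound as a 20-point dose response in triplicate for 30 min. cAMP was read by luminescent enzyme-complementation detection after overnight incubation, and EC50 was fitted from dose-response curves.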
In general terms: Cyclic AMP is a second messenger, typically raised through Gs and lowered through Gi signalling.
Turning to `C[C@H]1C[C@@H](Oc2ccnc(COc3ccc(F)cc3F)n2)CCN1Cc1nc2ccc(C(=O)NS(C)(=O)=O)cc2n1C[C@@H]1CCO1` [Compound 563, 2-(((2S,4S)-4-((2-((2,4-Difluorophenoxy)methyl)pyrimidin-4-yl)oxy)-2-methylpiperidin-1-yl)methyl)-N-(methylsulfonyl)-1-(((S)-oxetan-2-yl)methyl)-1H-benzo[d]imidazole-6-carboxamide], the EC50 (in general, the midpoint of the concentration-response curve) was in the range of 0.1 to 1 nM.
For `C[C@H]1C[C@@H](Oc2ccnc(COc3ccc(F)cc3F)n2)CCN1Cc1nc2ccc(C(=O)NO)cc2n1C[C@@H]1CCO1` [Compound 559, 2-(((2S,4S)-4-((2-((2,4-Difluorophenoxy)methyl)pyrimidin-4-yl)oxy)-2-methylpiperidin-1-yl)methyl)-N-hydroxy-1-(((S)-oxetan-2-yl)methyl)-1H-benzo[d]imidazole-6-carboxamide] the value was 0.1 to 1 nM.
The result for `N#Cc1ccc(OCc2nccc(O[C@H]3CCN(Cc4nc5ccc(C(=O)O)cc5n4C[C@@H]4CCO4)C[C@H]3F)n2)c(F)c1` [Compound 552, 2-{[(3R,4S)-4-({2-[(4-cyano-2-fluorophenoxy)methyl]pyrimidin-4-yl}oxy)-3-fluoropiperidin-1-yl]methyl}-1-{[(2S)-oxetan-2-yl]methyl}-1H-1,3-benzodiazole-6-carboxylic acid] reads 0.1 to 1 nM; that for `C[C@H]1C[C@@H](Oc2ccnc(COc3ccc(F)cc3F)n2)CCN1Cc1nc2ccc(CCC(=O)O)cc2n1C[C@@H]1CCO1` [Compound 623, 3-(2-(((2S,4S)-4-((2-((2,4-difluorophenoxy)methyl)pyrimidin-4-yl)oxy)-2-methylpiperidin-1-yl)methyl)-1-(((S)-oxetan-2-yl)methyl)-1H-benzo[d]imidazol-6-yl) propanoic acid], 1 to 10 nM; that for `N#Cc1ccc(OCc2nccc(O[C@H]3CC[C@@H](Cc4nc5ccc(C(=O)O)cc5n4C[C@@H]4CCO4)CC3)n2)c(F)c1` [Compound 641, 1-{[(2S)-oxetan-2-yl]methyl}-2-{[(1s,4s)-4-({2-[(4-cyano-2-fluorophenoxy)methyl]pyrimidin-4-yl}oxy)cyclohcxyl]methyl}-1H-1,3-benzodiazole-6-carboxylic acid], 100 to 500 nM.
For `C[C@H]1C[C@@H](Oc2ccnc(COc3ccc(F)cc3C#N)n2)CCN1Cc1nc2ncc(C(=O)O)cc2n1C[C@@H]1CCO1` [Compound 556, 2-(((2S,4S)-4-((2-((2-Cyano-4-fluorophenoxy)methyl)pyrimidin-4-yl)oxy)-2-methylpiperidin-1-yl)methyl)-1-(((S)-oxetan-2-yl)methyl)-1H-imidazo[4,5-b]pyridine-6-carboxylic acid] the value was 0.1 to 1 nM.
`C[C@H]1C[C@@H](Oc2nc(COc3ccc(F)cc3F)ncc2F)CCN1Cc1nc2ccc(C(=O)O)cc2n1C[C@@H]1CCO1` [Compound 581, 2-{[(2S,4S)-4-({2-[(2,4-difluorophenoxy)methyl]-5-fluoropyrimidin-4-yl}oxy)-2-methylpiperidin-1-yl]methyl}-1-{[(2S)-oxetan-2-yl]methyl}-1H-1,3-benzodiazole-6-carboxylic acid] came in with an EC50 of less than 0.1 nM.
`C[C@H]1C[C@@H](Oc2ccnc(COc3ncc(F)cc3F)n2)CCN1Cc1nc2c(F)cc(C(=O)O)cc2n1C[C@@H]1CCCO1` [Compound 622, 2-(((2S,4S)-4-((2-(((3,5-Difluoropyridin-2-yl)oxy)methyl)pyrimidin-4-yl)oxy)-2-methylpiperidin-1-yl)methyl)-4-fluoro-1-(((S)-tetrahydrofuran-2-yl)methyl)-1H-benzo[d]imidazole-6-carboxylic acid] returned an EC50 of 0.1 to 1 nM.
For `C[C@H]1C[C@@H](Oc2ccnc(COc3ncc(F)cc3F)n2)CCN1Cc1nc2c(F)cc(C(=O)O)cc2n1C[C@@H]1CCO1` [Compound 606, 2-(((2S,4S)-4-((2-(((3,5-difluoropyridin-2-yl)oxy)methyl)pyrimidin-4-yl)oxy)-2-methylpiperidin-1-yl)methyl)-4-fluoro-1-(((S)-oxetan-2-yl)methyl)-1H-benzo[d]imidazole-6-carboxylic acid] the value was less than 0.1 nM; for `C[C@H]1C[C@@H](Oc2ccnc(COc3ccc(C#N)cc3F)n2)CCN1Cc1nc2ccc(C(=O)O)cc2n1C[C@@H]1CCCO1` [Compound 579, 2-{[(2S,4S)-4-({2-[(4-cyano-2-fluorophenoxy)methyl]pyrimidin-4-yl}oxy)-2-methylpiperidin-1-yl]methyl}-1-{[(2S)-oxolan-2-yl]methyl}-1H-1,3-benzodiazole-6-carboxylic acid], 0.1 to 1 nM.
The result for `C[C@H]1C[C@@H](Oc2ccnc(COc3ccc(F)cc3F)n2)CCN1Cc1nc2cc(F)c(C(=O)O)cc2n1C[C@@H]1CCO1` [Compound 572, 2-{[(2S,4S)-4-({2-[(2,4-di-fluorophenoxy)methyl]pyrimidin-4-yl}oxy)-2-methylpiperidin-1-yl]methyl}-5-fluoro-1-{[(2S)-oxetan-2-yl]methyl}-1H-1,3-benzodiazole-6-carboxylic acid] reads 0.1 to 1 nM; that for `C[C@H]1C[C@@H](Oc2ccnc(COc3ccc(C#N)cc3F)n2)CCN1Cc1nc2ccc(C(=O)O)cc2n1C[C@@H]1CCOC1` [Compound 578, 2-{[(2S,4S)-4-({2-[(4-cyano-2-fluorophenoxy)methyl]pyrimidin-4-yl}oxy)-2-methylpiperidin-1-yl]methyl}-1-{[(3S)-oxolan-3-yl]methyl}-1H-1,3-benzodiazole-6-carboxylic acid], 0.1 to 1 nM; that for `C[C@H]1C[C@@H](Oc2ccnc(COc3ccc(C#N)cc3F)n2)CCN1Cc1nc2ccc(C(=O)O)cc2n1CCOCC(F)(F)F` [Compound 596, 2-{[(2S,4S)-4-({2-[(4-Cyano-2-fluorophenoxy)methyl]pyrimidin-4-yl}oxy)-2-methylpiperidin-1-yl]methyl}-1-[2-(2,2,2-trifluoroethoxy)ethyl]-1H-1,3-benzodiazole-6-carboxylic acid], less than 0.1 nM.
For `C[C@H]1C[C@@H](Oc2ccnc(COc3ccc(F)cc3F)n2)CCN1Cc1nc2ccc(CC(=O)O)cc2n1C[C@@H]1CCO1` [Compound 637, 2-(2-(((2S,4S)-4-((2-((2,4-difluorophenoxy)methyl)pyrimidin-4-yl)oxy)-2-methylpiperidin-1-yl)methyl)-1-(((S)-oxetan-2-yl)methyl)-1H-benzo[d]imidazol-6-yl) acetic acid] the value was 1 to 10 nM.
In turn, `C[C@H]1C[C@@H](Oc2ccnc(COc3ncc(Cl)cc3F)n2)CCN1Cc1nc2c(F)cc(C(=O)O)cc2n1C[C@@H]1CCO1` [Compound 597, 2-{[(2S,4S)-4-[(2-{[(5-Chloro-3-fluoropyridin-2-yl)oxy]methyl}pyrimidin-4-yl)oxy]-2-methylpiperidin-1-yl]methyl}-4-fluoro-1-{[(2S)-oxetan-2-yl]methyl}-1H-1,3-benzodiazole-6-carboxylic acid] yielded an EC50 of less than 0.1 nM.
For `Cc1cc2nc(CN3CC[C@H](Oc4ccnc(COc5ccc(F)cc5F)n4)C[C@@H]3C)n(C[C@@H]3CCO3)c2cc1C(=O)O` [Compound 585, 2-{[(2S,4S)-4-({2-[(2,4-Difluorophenoxy)methyl]pyrimidin-4-yl}oxy)-2-methylpiperidin-1-yl]methyl}-5-methyl-1-{[(2S)-oxetan-2-yl]methyl}-1H-1,3-benzodiazole-6-carboxylic acid] the value was 0.1 to 1 nM; for `CC[C@H]1C[C@@H](Oc2ccnc(COc3ncc(Cl)cc3F)n2)CCN1Cc1nc2ccc(C(=O)O)cc2n1C[C@@H]1CCO1` [Compound 608, 2-{[(2S,4S)-4-[(2-{[(5-Chloro-3-fluoropyridin-2-yl)oxy]methyl}pyrimidin-4-yl)oxy]-2-ethylpiperidin-1-yl]methyl}-1-[(oxetan-2-yl)methyl]-1H-1,3-benzodiazole-6-carboxylic acid], 0.1 to 1 nM; for `C[C@H]1C[C@@H](Oc2ccnc(COc3ccc(F)cc3F)n2)CCN1Cc1nc2ccc(C(=O)Nc3cccnc3)cc2n1C[C@@H]1CCO1` [Compound 638, 2-(((2S,4S)-4-((2-((2,4-Difluorophenoxy)methyl)pyrimidin-4-yl)oxy)-2-methylpiperidin-1-yl)methyl)-1-(((S)-oxetan-2-yl)methyl)-N-(pyridin-3-yl)-1H-benzo[d]imidazole-6-carboxamide], 10 to 100 nM.
In turn, `C[C@H](Cn1c(CN2CC[C@H](Oc3ccnc(COc4ncc(C#N)cc4F)n3)C[C@@H]2C)nc2ccc(C(=O)O)cc21)OC(F)F` [Compound 626, 2-(((2S,4S)-4-((2-(((5-cyano-3-fluoropyridin-2-yl)oxy)methyl)pyrimidin-4-yl)oxy)-2-methylpiperidin-1-yl)methyl)-1-((R)-2-(difluoromethoxy)propyl)-1H-benzo[d]imidazole-6-carboxylic acid] showed an EC50 of 0.1 to 1 nM.
For `C[C@H]1C[C@@H](Oc2ccnc(COc3ccc(F)cc3F)n2)CCN1Cc1nc2ccc(CO)cc2n1C[C@@H]1CCO1` [Compound 639, (2-(((2S,4S)-4-((2-((2,4-difluorophenoxy)methyl)pyrimidin-4-yl)oxy)-2-methylpiperidin-1-yl)methyl)-1-(((S)-oxetan-2-yl)methyl)-1H-benzo[d]imidazol-6-yl)methanol] the value was 10 to 100 nM.
On to `O=C(O)c1ccc2nc(CN3CC[C@H](Oc4ccnc(COc5ccc(Cl)cc5F)c4)C[C@@H]3CF)n(C[C@@H]3CCO3)c2c1` [Compound 555, 2-(((2R,4S)-4-((2-((4-Chloro-2-fluorophenoxy)methyl)pyridin-4-yl)oxy)-2-(fluoromethyl)piperidin-1-yl)methyl)-1-(((S)-oxetan-2-yl)methyl)-1H-benzo[d]imidazole-6-carboxylic acid], for which the half-maximal effective concentration (EC50) is less than 0.1 nM.
`C[C@H]1C[C@@H](Oc2ccnc(COc3ccc(Cl)cn3)c2)CCN1Cc1nc2c(F)cc(C(=O)O)cc2n1C[C@@H]1CCO1` [Compound 616, 2-(((2S,4S)-4-((2-(((5-Chloropyridin-2-yl)oxy)methyl)pyridin-4-yl)oxy)-2-methylpiperidin-1-yl)methyl)-4-fluoro-1-(((S)-oxetan-2-yl)methyl)-1H-benzo[d]imidazole-6-carboxylic acid] showed an EC50 of 0.1 to 1 nM.
